Experimental data published in patent publication US20180213779A1, “PESTICIDALLY ACTIVE HETEROCYCLIC DERIVATIVES WITH SULPHUR CONTAINING SUBSTITUENTS” (SYNGENTA PARTICIPATIONS AG, priority 2015, published 2018).

Legend:
Assay type in all cases: in vivo
[1] = tested on: Plutella xylostella (Diamond-Back Moth); test: Example B3: Plutella xylostella larvicide, feeding/contact activity, preventative (artificial diet, 96-well); details: 216 h, application rate of 500 ppm, mortality assessed 9 days after treatment
Experimental: Example B3: Plutella xylostella (Diamond-Back Moth) larvicide, feeding/contact activity, preventative Artificial diet was dispensed into a 96-well microtiter plate and treated with aqueous test solutions prepared from 10′000 ppm DMSO stock solutions. Eggs were suspended above the treated diet and first instar larvae hatched onto the diet. Mortality was assessed 9 days after treatment.

[2] = tested on: Plutella xylostella (Diamond Back Moth); test: Example B11: Activity against Plutella xylostella (artificial diet, 24-well, L2 larvae); details: 120 h, application rate of 200 ppm, 5 days after infestation, read-out: effect in at least one of the two categories (mortality or growth inhibition)
Experimental: Example B11: Activity Against Plutella xylostella (Diamond Back Moth)
(§1) 24-well microtiter plates with artificial diet were treated with aqueous test solutions prepared from 10′000 ppm DMSO stock solutions by pipetting. After drying, the plates were infested with L2 larvae (10 to 15 per well). The samples were assessed for mortality and growth inhibition in comparison to untreated samples 5 days after infestation.

[3] = tested on: Diabrotica balteata (Corn Root Worm); test: Example B6: Activity against Diabrotica balteata (sprayed maize sprouts); details: 96 h, application rate of 200 ppm, L2 larvae, 4 days after infestation, read-out: effect in at least one of the two categories (mortality or growth inhibition)
Experimental: Example B6: Activity Against Diabrotica Balteata (Corn Root Worm)
as §1, with “Maize sprouts placed onto an agar layer in 24-well” for “24-well”, “plates” for “plates with artificial diet”, “spraying.” for “pipetting.”, “(6” for “(10”, “10” for “15”, “4” for “5”

[4] = tested on: Spodoptera littoralis (Egyptian Cotton Leaf Worm); test: Example B4: Activity against Spodoptera littoralis (sprayed cotton leaf discs); details: foliar, 72 h, application rate of 200 ppm, L1 larvae, 3 days after infestation
Experimental: Example B4: Activity Against Spodoptera littoralis (Egyptian Cotton Leaf Worm)
Cotton leaf discs were placed on agar in 24-well microtiter plates and sprayed with aqueous test solutions prepared from 10′000 ppm DMSO stock solutions. After drying the leaf discs were infested with five L1 larvae. The samples were assessed for mortality, anti-feedant effect, and growth inhibition in comparison to untreated samples 3 days after infestation. Control of Spodoptera littoralis by a test sample is given when at least one of the categories mortality, anti-feedant effect, and growth inhibition is higher than the untreated sample.

[5] = tested on: Tetranychus urticae (Two-Spotted Spider Mite); test: Example B12: Activity against Tetranychus urticae (sprayed bean leaf discs); details: foliar, 192 h, application rate of 200 ppm, mixed population (mobile stages), 8 days after infestation
Experimental: Example B12: Activity Against Tetranychus urticae (Two-Spotted Spider Mite)
Bean leaf discs on agar in 24-well microtiter plates were sprayed with aqueous test solutions prepared from 10′000 ppm DMSO stock solutions. After drying the leaf discs were infested with a mite population of mixed ages. The samples were assessed for mortality on mixed population (mobile stages) 8 days after infestation.

[6] = tested on: Myzus persicae (Green Peach Aphid); test: Example B10: Activity against Myzus persicae (sucrose solution, Parafilm feeding); details: 120 h, test rate of 12 ppm, 5 days after infestation
Source text: Example B10: Activity Against Myzus persicae (Green Peach Aphid)
Test compounds prepared from 10′000 ppm DMSO stock solutions were applied by pipette into 24-well microtiter plates and mixed with sucrose solution. The plates were closed with a stretched Parafilm. A plastic stencil with 24 holes was placed onto the plate and infested pea seedlings were placed directly on the Parafilm. The infested plate was closed with a gel blotting paper and another plastic stencil and then turned upside down. The samples were assessed for mortality 5 days after infestation.

[7] = tested on: Myzus persicae (Green Peach Aphid); test: Example B8: Activity against Myzus persicae (sprayed sunflower leaf discs); details: foliar, 144 h, application rate of 200 ppm, mixed ages, 6 days after infestation
Experimental: Example B8: Activity Against Myzus persicae (Green Peach Aphid)
Sunflower leaf discs were placed onto agar in a 24-well microtiter plate and sprayed with aqueous test solutions prepared from 10′000 ppm DMSO stock solutions. After drying, the leaf discs were infested with an aphid population of mixed ages. The samples were assessed for mortality 6 days after infestation.

| SMILES | pest or weed control at 500 ppm [1] | percent effect (mortality or growth inhibition) at 200 ppm [2] | effect (mortality or growth inhibition) at 200 ppm [3] | percent control (mortality, anti-feedant effect or growth inhibition) at 200 ppm [4] | mortality at 200 ppm [5] | mortality at 12 ppm [6] | mortality at 200 ppm [7] |
| --- | --- | --- | --- | --- | --- | --- | --- |
| CCS(=O)(=O)c1cc(Br)cnc1-c1cn(-c2cccc(C(F)(F)F)c2)nn1 [Compound P12, 5-bromo-3-ethylsulfonyl-2-[1-[3-(trifluoromethyl)phenyl]triazol-4-yl]pyridine] | ≥ 70% | ≥ 80% | ≥ 80% | ≥ 80% | ≥ 80% |  |  |
| CCSc1cccnc1-c1cn(-c2cncc(C(F)(F)F)c2)nn1 [Compound P19] | ≥ 70% |  | ≥ 80% |  |  | ≥ 80% | ≥ 80% |
